In assay [1] the test system is Jak/STAT phosphorylation in PancI cells. Put plainly: Western Blotting of signal pathway proteins in PancI cells. The assay is classed as cell-based, human. (In general: In western blotting, separated proteins are transferred to a membrane and probed.)
The subject of assay [2] is NCI-H460 (lung cancer cell line). In words: MTT assay, LD030 on NCI-H460. It is filed as cell-based. The following applies: Homo sapiens; NCI-H460, 100 μM, 48 hours; read-out: inhibition rate on cell growth. On the procedure: (§1) MTT assay, a well known method known in the art, was used to analyze anticancer effects of compound LD030 on human cancer cell lines, such as, HepG2 (liver cancer cell line), PancI (pancreatic cancer cell line), NCI-H460 (lung cancer cell line), MCF-7 (breast adenocarcinoma cell line) and SF-268 (brain tumor cell lines). An LD030 solution was diluted gradually to obtain a serial of LD030 solutions with decreasing concentrations, which was used to treat various cancer cell lines mentioned above incubated in separate container. […] For incubating with HepG2 cell line, LD030's concentrations were 0.001 μM, 0.01 μM, 0.1 μM, 1 μM, 10 μM, 100 μM. For PancI cell line, the concentrations were 0.1 μM, 1 μM, 10 μM, 100 μM. For NCI-H460 cell line, the concentrations were 0.001 μM, 0.01 μM, 0.1 μM, 1 μM, 10 μM, 100 μM. For MCF-7 cell line, the concentrations were 0.001 μM, 0.01 μM, 0.1 μM, 1 μM, 10 μM, 100 μM. For SF-268 cell line, the concentrations were 0.001 μM, 0.01 μM, 0.1 μM, 1 μM, 10 μM, 100 μM.
For orientation: Tetrazolium dyes change colour on reduction, which living cells bring about.

The subject of assay [3] is HepG2 cells. Put plainly: Flow cytometry (PI staining) for apoptosis of HepG2 cells. The settings on record: HepG2, 24 hours, 0.03-17.5 μM. It is filed as cell-based, human. On the procedure: The study was conduct by using flow cytometry to detect apoptosis of HepG2 cells after being treated for 24 hours with LD030 at concentrations 0.03 μM, 0.14 μM, 0.7 μM, 3.5 μM, and 17.5 μM along with blank control. Then proceeded as follows:
1. Collect cells (1-5×10^6/mL), centrifuge at 500-1000 r/min for 5 min, and discard the culture medium.
2. Wash the cells with 3 ml PBS once.
3. Centrifuge to discard PBS, and add 70% ice-cold ethanol for fixation, 4° C., 1-2 hours.
4. Centrifuge to discard ethanol, and re-suspend in 3 ml PBS for 5 min.
5. Filter with a 400 mesh screen, and centrifuge 500-1000 r/min for 5 min to discard PBS.
6. Stain with 1 ml propidium iodide (Propidium Iodide, PI) at 4° C. in the dark for 30 min.
7. Conduct flow cytometry.

The subject of assay [4] is SF-268 (brain tumor cell lines). Put plainly: MTT assay, LD030 on SF-268. It is filed as cell-based. The settings on record: Homo sapiens; SF-268, 100 μM, 48 hours; read-out: inhibition rate on cell growth. On the procedure: as §1
The subject of assay [5] is pancreatic cancer cell lines. Put plainly: Nude mouse model of pancreatic cancer (xenograft), tumor size. It is filed as in vivo, NOD/SCID mice. The following applies: 43 days; for tumor volume reduced: FIG. 15. As to the method: Two strains of pancreatic cancer cell lines were selected to be grafted to nonobese diabetic/severe combined immunodeficient (NOD/SCID) mice, and the tumor was inoculated in mouse ventral sides. About two weeks, they were used as a nude mouse model of pancreatic cancer. […] Each of the above groups. The treatment continued for 43 days (gemcitabine alone group 2 times a week; other groups 3 times a week), and then tumor size was recorded as shown in FIG. 16. […] Further experiments were conducted to study the effects of the combinational use of LD030 with gemcitabine as compared being used alone on tumor inhibition. Four treatment groups were set up: (a) blank control, (2) gemcitabine (25 mg/kg/time, 2 times a week), (3) LD030 (0.5 mg/kg/time, 3 times a week), (4) LD030 (0.5 mg/kg/time, 3 times a week) together with gemcitabine (25 mg/kg/time, 2 times a week).

The subject of assay [6] is MCF-7 (breast adenocarcinoma cell line). Put plainly: MTT assay, LD030 on MCF-7. The assay is classed as cell-based. The following applies: Homo sapiens, MCF7; MCF-7, 100 μM, 48 hours; read-out: inhibition rate on cell growth. As to the method: as §1
In assay [7] the test system is HepG2 cells. In words: Nude mouse model of hepatocellular carcinoma (HepG2), growth rate. It is filed as in vivo, nude mice. On the procedure:
In contrast, LD30 (1 mg/kg/time, twice a day) reduced the growth rate of HepG2 cells by about 63%, with statistical significance (p<0.05) when compared with the ethanol control.
LD030 was also compared with Nexavar for their effects on the growth rate of HepG2 cells.
A further study was conducted on liver cancer cell line in nude mice (HepG2), where Nexavar's dosage was 30 mg/kg, twice a day and LD030's dosage was 1 mg/kg, twice a day along with a blank control and a combination of LD030 and Nexavar. The result is shown in FIG. 21 where Nr stands for Nexavar. […] When compared with the blank, LD030's effect is statistically significant (p<0.05).

The subject of another assay is HepG2. In words: In vitro effects on growth of liver cancer cells (Table 4). It is filed as cell-based, human.
Assay [8] deals with p-STAT3, p-JAK2, Bcl-XL, apoptosis protease 3, 9. Put plainly: Protein electrophoresis of extracts from treated allograft mouse. The assay is classed as in vivo. The following applies: 0.01 mg/kg intraperitoneal injection, three times a week; versus control mouse. As to the method:
LD030's effect on the growth of allograft pancreatic cancer cell lines was further studied as follows: Each mouse model was given 0.01 mg/kg LD030 via intraperitoneal injection, three times a week. […] Extracted from the treated mouse and the control mouse, the phosphorylation-signal transduction and activator of transcription (p-STAT3), phospho-JAK2 (p-JAK2), Bcl-XL, apoptosis protease 3, 9 and GADPH (glyceraldehyde-3-phosphate dehydrogenase, or […]) were subject to protein electrophoresis. […] GADPH was used as an internal reference, the expression of which was basically unchanged.

The subject of assay [9] is HepG2 (liver cancer cell line). Put plainly: MTT assay, LD030 on HepG2. The assay is classed as cell-based. The settings on record: Homo sapiens, 48 hours, read-out: inhibition rate on cell growth. On the procedure:
as §1

[10] abbreviates: 50 μM, at 24 hours and 48 hours, versus blank control.

SMILES strings stand for the structures. pIC50: −log10 of the molar value. Bounds are passed on as bounds.

The term inhibition denotes the percentage by which the read-out fell short of the control. What is called pIC50 is the IC50 on a negative log10 scale, so that one unit is a factor of ten. The low end stands for a high IC50, the high end for a low IC50. On to `CC(=O)OC(C)(C)C(=O)CCC(C)C1CC[C@@]2(C)C34CC[C@H]5C(C)(C)[C@@H](O)CC[C@]5(C)C3(CC[C@]12C)O4` (some centres unmarked) [LD030], for which the p-p38 protein expression entry in [1] (20 μM, versus blank control) is given as “increased”. In addition, the p-jak2 result in [1] (setting [10]) is recorded as “significantly reduced”. Besides, in assay [1] (setting [10]), the “p-stat3 (tyr705)” value is given as “significantly reduced”. The “expression of Cyclin B1” value in assay [1] (50 μM, at 48 hours) is “decreased”. Besides, the inhibition at 100 µM in assay [2], in [4], in [6] and in assay [9] was more than 80% in each case. The “cell lysis by flow cytometry” value with HepG2 cells [3] was “greater proportions of cell lysis with increased LD030 concentrations”. The tumor volume reduced was determined as 21% in assay [5] (0.5 mg/kg/time LD030, 3 time a week) and 62% in assay [5] (1 mg/kg/time LD030, 3 time a week). Moreover, in [5] (LD030 0.5 mg/kg/time, 3 times a week, FIG. 17), the tumor size reduced is 21%. The “effect on the tumor cells” value in the assay with HepG2 cells [7] (HepG2 in nude mice, LD030 1 mg/kg twice a day alone, FIG. 21) is given as “inhibitory effect”. Besides, in the assay with HepG2 cells [7] (nude mouse model, 1 mg/kg, twice a day, versus blank carrier control), the “reduction of growth rate of HepG2 cells” value is recorded as “about 63%”. Also, the pIC50 with HepG2 (Homo sapiens, HepG2, in vitro growth of HepG2 liver cancer cells) was 5.88; with HepG2 (in vitro growth of HepG2 liver cancer cells), 5.80. Also, the “expression of Bcl-XL” value in [8] is “significantly reduced”. Moreover, the “expression of apoptosis protease 3, 9” value in assay [8] is “significantly increased”. Moreover, the “expression of p-JAK2” value in assay [8] is given as “significantly reduced”. Moreover, the “expression of p-STAT3” value in [8] is “significantly reduced”.

(Values after US9522935B2, “Commands and method of treating cancer via RHO pathway” (priority 2013, dated 2016).)
